Reference: ChEMBL document CHEMBL3045873, “Synthesis and anti-juvenile hormone activity of ethyl 4-(2-benzylalkyloxy)benzoates and their enantiomers” (2007)

Key:
Assay type in all cases: functional
Bombyx mori [1] = experiment: Anti-juvenile hormone activity in Bombyx mori Shunrei x Shougetsu 24 hr old third-instar larvae exposed to compound through topical application to dorsal abdomen assessed as precocious metamorphosis at 1 ug/larva relative to untreated control
Bombyx mori [2] = experiment: (§1) Anti-juvenile hormone activity in Bombyx mori Shunrei x Shougetsu 24 hr old third-instar larvae exposed to compound through topical application to dorsal abdomen assessed as precocious metamorphosis at 0.1 ug/larva relative to untreated control
Bombyx mori [3] = experiment: Anti-juvenile hormone activity in Bombyx mori Shunrei x Shougetsu 24 hr old third-instar larvae exposed to compound through topical application to dorsal abdomen assessed as precocious metamorphosis at 40 ug/larva relative to untreated control
Bombyx mori [4] = experiment: Anti-juvenile hormone activity in Bombyx mori Shunrei x Shougetsu 24 hr old fifth-instar larvae assessed as time required for onset of cocoon spinning starting from ecdysis day at 1 ug/1 ul applied topically (reference value: 8 +/- 1.2 days)
Bombyx mori [5] = experiment: Anti-juvenile hormone activity in Bombyx mori Shunrei x Shougetsu 24 hr old third-instar larvae exposed to compound through topical application to dorsal abdomen assessed as precocious metamorphosis at 10 ug/larva relative to untreated control
Bombyx mori [6] = experiment: Anti-juvenile hormone activity in Bombyx mori Shunrei x Shougetsu first 48 hr old newly molted third-instar larvae assessed as precocious metamorphosis at 50 ppm mixed with artificial diet untreated control
Bombyx mori [7] = experiment: Anti-juvenile hormone activity in Bombyx mori Shunrei x Shougetsu first 48 hr old newly molted third-instar larvae assessed as precocious metamorphosis at 200 ppm mixed with artificial diet untreated control
Bombyx mori [8] = experiment: Anti-juvenile hormone activity in Bombyx mori Shunrei x Shougetsu 72 hr old second-instar larvae assessed as precocious metamorphosis at 0.1 ug/larva relative to untreated control
Bombyx mori [9] = experiment: Anti-juvenile hormone activity in Bombyx mori Shunrei x Shougetsu newly molted fourth-instar larvae assessed as precocious metamorphosis at 1 ug/larva relative to untreated control
Bombyx mori [10] = experiment: Anti-juvenile hormone activity in Bombyx mori Shunrei x Shougetsu 72 hr old second-instar larvae assessed as precocious metamorphosis at 1 ug/larva relative to untreated control
Bombyx mori [11] = experiment: Anti-juvenile hormone activity in Bombyx mori Shunrei x Shougetsu 72 hr old second-instar larvae assessed as precocious metamorphosis at 10 ug/larva relative to untreated control
Bombyx mori [12] = experiment: Anti-juvenile hormone activity in Bombyx mori Shunrei x Shougetsu newly molted fourth-instar larvae assessed as precocious metamorphosis at 10 ug/larva relative to untreated control
Bombyx mori [13] = experiment: as §1, with “ug/larva in presence of 20 ppm 20-hydroxyecdysone applied through diet for first 48 hr to 24 hr old third-instar larvae” for “ug/larva”
Bombyx mori [14] = experiment: as §1, with “ug/larva in presence of 10 ug/larva methoprene applied to 24 hr old third-instar larvae” for “ug/larva”
Bombyx mori [15] = experiment: as §1, with “ug/larva in presence of 20 ppm 20-hydroxyecdysone applied through diet for first 48 hr to 24 hr old newly molted fourth-instar larvae” for “ug/larva”
Bombyx mori [16] = experiment: as §1, with “ug/larva in presence of 10 ug/larva methoprene applied to 24 hr old newly molted fourth-instar larvae” for “ug/larva”

| Structure (SMILES) | Activity (Bombyx mori [1]) [%] | Activity (Bombyx mori [2]) [%] | Activity (Bombyx mori [3]) [%] | Time (Bombyx mori [4]) [days] | Activity (Bombyx mori [5]) [%] | also measured |
| --- | --- | --- | --- | --- | --- | --- |
| CCOC(=O)c1ccc(OCC(CC)OC(=O)C(C)(C)C)cc1 (stereo not given) | 10 | 0 | 0 | 12.7 | 0 | – |
| CCCCC(COc1ccc(C(=O)O)cc1)Cc1ccccc1 (stereo not given) | – | – | – | – | – | Activity (Bombyx mori [6]): 0%; Activity (Bombyx mori [7]): 0% |
| CCCC[C@H](COc1ccc(C(=O)OCC)cc1)Cc1ccccc1 | 96 | 52 | 15 | 14.3 | 17 | Activity (Bombyx mori [8]): 20%; Activity (Bombyx mori [9]): 10%; Activity (Bombyx mori [10]): 89%; Activity (Bombyx mori [11]): 95%; Activity (Bombyx mori [12]): 0% |
| CCCC[C@@H](COc1ccc(C(=O)OCC)cc1)Cc1ccccc1 | 8 | 0 | 67 | 8.4 | 42 | Activity (Bombyx mori [8]): 0%; Activity (Bombyx mori [9]): 5%; Activity (Bombyx mori [10]): 0%; Activity (Bombyx mori [11]): 0%; Activity (Bombyx mori [12]): 0% |
| CCCCC[C@H](COc1ccc(C(=O)OCC)cc1)Cc1ccccc1 | 97 | 65 | 17 | – | 39 | – |
| CCCCC[C@@H](COc1ccc(C(=O)OCC)cc1)Cc1ccccc1 | 54 | 0 | 76 | – | 83 | – |
| CCOC(=O)c1ccc(OCC(Cc2ccccc2)Cc2ccccc2)cc1 | 35 | 0 | 95 | – | 65 | – |
| CCCCC(COc1ccc(C(=O)OCC)cc1)Cc1ccccc1 (racemic) | 90 | 21 | 12 | 10.1 | 34 | Activity (Bombyx mori [8]): 0%; Activity (Bombyx mori [6]): 58%; Activity (Bombyx mori [13]): 95%; Activity (Bombyx mori [14]): 0%; Activity (Bombyx mori [9]): 5%; Activity (Bombyx mori [10]): 45%; Activity (Bombyx mori [15]): 100%; Activity (Bombyx mori [7]): 5%; Activity (Bombyx mori [16]): 0%; Activity (Bombyx mori [11]): 85%; Activity (Bombyx mori [12]): 10% |
| CCOC(=O)c1ccc(OCC(CC)Cc2ccccc2)cc1 (racemic) | 0 | 0 | – | – | 5 | – |
| CCCC(COc1ccc(C(=O)OCC)cc1)Cc1ccccc1 (racemic) | 22 | 0 | 87 | – | 37 | – |
| CCOC(=O)c1ccc(OCC(Cc2ccccc2)CC(C)C)cc1 (racemic) | 0 | 0 | 46 | – | 22 | – |
| CCCCCC(COc1ccc(C(=O)OCC)cc1)Cc1ccccc1 (racemic) | 94 | 37 | 20 | – | 48 | – |
| CCCCCCC(COc1ccc(C(=O)OCC)cc1)Cc1ccccc1 (racemic) | 20 | 0 | 62 | – | 42 | – |
| COC(C)(C)CCC[C@H](C)C/C=C/C(C)=C/C(=O)OC(C)C [METHOPRENE] | – | – | – | 10.9 | – | – |
